From BindingDB's records for doi:10.1016/s0960-894x(01)00278-5 (Pharmacia, 2001)

assay: Binding affinity towards guinea pig Opioid receptor kappa 1 using radioligand [3H]U69,593

Going from `CN(C)C(=O)c1ccc2c3c1OC1C(O)C=C[C@H]4[C@@H](C2)N(C)CC[C@]314` (stereo partly drawn) [4,10N,10N-trimethyl-14-hydroxy-(1S,5R,17R)-12-oxa-4-azapentacyclo[9.6.1.01,13.05,17.07,18]octadeca-7,9,11(18),15-tetraene-10-carboxamide] to `CN1CC[C@]23c4c5ccc(C(N)=O)c4OC2C(O)C=C[C@H]3[C@H]1C5` (stereo partly drawn) [14-hydroxy-4-methyl-(1S,5R,17R)-12-oxa-4-azapentacyclo[9.6.1.01,13.05,17.07,18]octadeca-7,9,11(18),15-tetraene-10-carboxamide], the Ki falls from greater than 10 µM to 1.9 µM. The second binds more tightly here.

`CNC(=O)c1ccc2c3c1OC1C(O)C=C[C@H]4[C@@H](C2)N(C)CC[C@]314` (stereo partly drawn) [4,10N-dimethyl-14-hydroxy-(1S,5R,17R)-12-oxa-4-azapentacyclo[9.6.1.01,13.05,17.07,18]octadeca-7,9,11(18),15-tetraene-10-carboxamide] showed a Ki greater than 10 µM.
